Measurements published in patent publication US20060167057A1, “Compounds for the treatment of CNS and amyloid associated diseases” (priority 2004, published 2006).
Values belong to the compound of their own block, whether it stands above or below them.

Assays:
Aβ40 = Aβ40 (Homo sapiens, UniProt P05067); assay: Electrospray MS assay for binding to Aβ40; parameters: key: +++ = Strong (70 and higher % of free peptide); ++ = Moderate (50-70% of free peptide); + = Weak (25-50% of free peptide); 0 = None; conditions: 100 μM compound, 20 μM Aβ40, pH 7.4
Excerpt: (§1) The ability of a therapeutic compound of the invention to inhibit an interaction between an amyloidogenic protein and a glycoprotein or proteoglycan constituent of a basement membrane can be assessed by an in vitro binding assay, such as that described in U.S. Pat. No. 5,164,295, the contents of which are hereby incorporated by reference. Alternatively, the ability of a compound to bind to an amyloidogenic protein or to inhibit the binding of a basement membrane constituent (e.g. HSPG) to an amyloidogenic protein (e.g. Aβ) can be measured using a mass spectrometry assay where soluble protein, e.g Aβ, IAPP, β2M is incubated with the compound. A compound which binds to, e.g Aβ, will induce a change in the mass spectrum of the protein. Exemplary protocols for a mass spectrometry assay employing Aβ and IAPP can be found in the Examples, the results of which are provided in Table 5. The protocol can readily be modified to adjust the sensitivity of the data, e.g., by adjusting the amount of protein and/or compound employed. Thus, e.g., binding might be detected for test compounds noted as not having detectable binding employing less sensitive test protocols.
The binding ability between the compounds synthesized in Example 4 and Aβ40 in an aqueous solution is tested. The binding ability is attributed semi-quantitatively from the intensities of peptide-compound complex peaks observed in the Electrospray Mass Spectrum.
In the MS assay for Aβ40, samples are prepared as aqueous solutions adding 20% ethanol if necessary to solubilize in water. The stock solution of the peptide contains 50 μm Aβ40. In a typical experiment, 100 μM of an exemplary compound as prepared in Example 4 and 20 μM of solubilized Aβ40 are used. The ratio of the compound: peptide is 5:1. The pH value of each sample is adjusted to 7.4 (±0.2) by addition of 0.1% aqueous sodium hydroxide. The solutions are then analyzed by electrospray ionization mass spectrometry using a Waters ZQ 4000 mass spectrometer. Samples are introduced by direct infusion at a flow-rate of 25 μL/min within 2 hr. after sample preparation. The source temperature is kept at 70° C. and the cone voltage is 20 V for all the analysis. Data are processed using Masslynx 3.5 software. Aβ 1-40 (M.W.=4329) alone at 20 μM is analyzed at pH 7.32 as a control. Sodium clusters, which are typical of this system at +3 and +4 at m/z […] regions, may be observed. The MS assay gives data on the ability of compounds to bind to soluble Aβ, whereas the ThT, EM and CD assays give data on inhibition of fibrillogenesis.
In Table 7, a blank box means that a value was not determined for that compound in that assay.

IAPP = target: T1, IAPP (Homo sapiens, UniProt P10997); assay: Electrospray MS assay for binding to IAPP; parameters: key to MS Results (IAPP binding), Water: 0 = None; conditions: 100 μM compound, 20 μM IAPP; for MS Results (IAPP binding), 20% Ethanol: pH 7.4, 20% ethanol in water; for MS Results (IAPP binding), Water: pH 7.4, aqueous solution
T1 construct: which is a 37 amino acid peptide, derived from a larger precursor peptide, called pro-IAPP
T1 sequence (P10997 34-70 limits assumed): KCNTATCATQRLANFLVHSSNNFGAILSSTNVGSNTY
Excerpt: as §1
The binding ability between the compounds synthesized in Example 4 and IAPP in an aqueous solution is tested. The binding ability is attributed semi-quantitatively from the intensities of peptide-compound complex peaks observed in the Electrospray Mass Spectrum.
In the MS assay for IAPP, samples are prepared as both aqueous solutions and as 20% ethanol in water solutions, including 100 μM of an exemplary compound as prepared in. Example 4 and 20 μM of solubilized IAPP. The stock solution contains 30 μM IAPP and the initial pH is 3.8. Generally, IAPP precipitates out of solution at concentrations higher than 50 μM and pH higher than ˜6 as soon as a test compound is mixed with the peptide. The pH value of each sample, therefore, is adjusted to 7.4 ([…]) by addition of 0.1% aqueous sodium hydroxide. The solutions aer then analyzed by electrospray ionization mass spectrometry using a Waters ZQ 4000 mass spectrometer. Samples are introduced by direct infusion at a flow-rate of 25 μL/min within 2 hr. after sample preparation. The source temperature is kept at 70° C. and the cone voltage is 20 V for all the analysis. Data are processed using Masslynx 3.5 software. IAPP (MW 3903.4) alone at 20 μM is analyzed at pH 7.32 as a control. Sodium clusters, which are typical of this system at +3 and +4 at m/z 1301.9 and 976.7 regions, may be observed. In Table 8, a blank box means that a value was not determined for that compound in that assay.

[1] = target: T2, L1 transport system (large neutral amino acid carrier, L1-system carrier) (Rattus norvegicus, UniProt Q63016); assay: Competitive binding assay to the brain L1 transport system (L-[U-14C]phenylalanine on rat primary cerebrovascular endothelial cells)
T2 construct: functionality of their endogenous transporters such as the L1-system carrier; endogenous in cells; host or cells: rat primary cerebrovascular (brain microcapillary) endothelial cells, RBEC
In short: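 Cells were primary cerebral microvascular endothelial cells from cortices of 24-day-old rats, isolated by collagenase/DNAse digestion, dextran separation and mesh filtration.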

T2 sequence (Q63016 whole entry): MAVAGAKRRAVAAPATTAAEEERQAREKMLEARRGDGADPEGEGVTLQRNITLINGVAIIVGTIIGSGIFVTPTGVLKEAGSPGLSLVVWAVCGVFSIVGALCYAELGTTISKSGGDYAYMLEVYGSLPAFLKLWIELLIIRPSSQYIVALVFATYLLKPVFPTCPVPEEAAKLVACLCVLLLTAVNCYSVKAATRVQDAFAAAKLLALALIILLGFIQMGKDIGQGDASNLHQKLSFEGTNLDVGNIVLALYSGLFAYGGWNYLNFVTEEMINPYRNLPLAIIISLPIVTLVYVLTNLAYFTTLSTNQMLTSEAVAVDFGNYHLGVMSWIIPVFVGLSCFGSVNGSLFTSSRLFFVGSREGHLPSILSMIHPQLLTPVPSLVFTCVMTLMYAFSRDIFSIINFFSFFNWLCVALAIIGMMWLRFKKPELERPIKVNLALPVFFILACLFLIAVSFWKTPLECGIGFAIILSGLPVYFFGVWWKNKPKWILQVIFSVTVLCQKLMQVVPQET
T2 sequence (Q794F9 whole entry partner): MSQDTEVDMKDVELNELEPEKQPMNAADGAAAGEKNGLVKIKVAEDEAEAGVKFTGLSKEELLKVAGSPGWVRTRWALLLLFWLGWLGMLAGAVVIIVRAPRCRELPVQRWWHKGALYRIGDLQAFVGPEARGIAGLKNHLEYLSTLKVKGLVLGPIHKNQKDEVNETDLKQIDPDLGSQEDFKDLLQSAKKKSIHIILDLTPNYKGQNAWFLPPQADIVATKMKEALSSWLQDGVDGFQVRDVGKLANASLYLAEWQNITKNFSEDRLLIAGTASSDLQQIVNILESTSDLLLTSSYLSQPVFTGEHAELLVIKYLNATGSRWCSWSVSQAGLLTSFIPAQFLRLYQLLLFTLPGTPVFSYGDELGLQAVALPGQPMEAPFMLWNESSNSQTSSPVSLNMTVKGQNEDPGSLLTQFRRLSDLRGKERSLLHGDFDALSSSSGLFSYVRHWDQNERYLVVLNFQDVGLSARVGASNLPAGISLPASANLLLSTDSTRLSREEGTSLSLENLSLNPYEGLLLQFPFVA
Sequence of Aβ40 (P05067 672-711 limits assumed): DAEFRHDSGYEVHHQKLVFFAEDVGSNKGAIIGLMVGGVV

MS Results (Aβ 1-40 binding) (Aβ40): 0
Compound: N[C@@H](Cc1cccc(CSc2nccc(O)n2)c1)C(=O)O [drawing 495]

MS Results (IAPP binding), Water (IAPP): 0
Compound: N[C@@H](Cc1cccc(CSc2nccc(O)n2)c1)C(=O)O [drawing 517]

MS Results (Aβ 1-40 binding) (Aβ40): + (+ = Weak (25-50% of free peptide))
Compound: N[C@@H](Cc1cccc(CSc2nc3ccccc3[nH]2)n1)C(=O)O [drawing 491]

MS Results (Aβ 1-40 binding) (Aβ40): + (+ = Weak (25-50% of free peptide))
Compound: N[C@@H](Cc1cccc(C[S+]([O-])c2nnnn2-c2ccccc2)c1)C(=O)O (stereo partly shown) [drawing 496]

MS Results (Aβ 1-40 binding) (Aβ40): + (+ = Weak (25-50% of free peptide))
Compound: COc1ccc(-n2nnnc2SCc2cccc(C[C@H](N)C(=O)O)c2)cc1 [drawing 487]

MS Results (Aβ 1-40 binding) (Aβ40): + (+ = Weak (25-50% of free peptide))
Compound: N[C@@H](Cc1cccc(CSc2nnc(-c3ccncc3)o2)c1)C(=O)O [drawing 502]

MS Results (IAPP binding), Water (IAPP): 0
Compound: N[C@@H](Cc1cccc(CSc2ncc[nH]2)c1)C(=O)O

MS Results (IAPP binding), 20% Ethanol (IAPP): + (+ = Weak (15-30% of free peptide)) | MS Results (IAPP binding), Water (IAPP): + (+ = Weak (15-30% of free peptide))
Compound: CN(C)CCn1nnnc1SCc1cccc(C[C@H](N)C(=O)O)c1 [drawing 525]

MS Results (IAPP binding), 20% Ethanol (IAPP): + (+ = Weak (15-30% of free peptide)) | MS Results (IAPP binding), Water (IAPP): 0
Compound: N[C@@H](Cc1cccc(CSc2nc3ccccc3[nH]2)c1)C(=O)O [drawing 510]

MS Results (IAPP binding), Water (IAPP): + (+ = Weak (15-30% of free peptide))
Compound: N[C@@H](Cc1cccc(CS(=O)(=O)c2nc3ccccc3[nH]2)c1)C(=O)O [drawing 521]

MS Results (IAPP binding), Water (IAPP): + (+ = Weak (15-30% of free peptide))
Compound: COc1ccc(-n2nnnc2[S+]([O-])Cc2cccc(C[C@H](N)C(=O)O)c2)cc1 (stereo partly shown) [drawing 516]

MS Results (IAPP binding), Water (IAPP): + (+ = Weak (15-30% of free peptide))
Compound: N[C@@H](Cc1cccc(CSc2nnc(-c3ccccc3)[nH]2)c1)C(=O)O [drawing 511]

MS Results (IAPP binding), Water (IAPP): + (+ = Weak (15-30% of free peptide))
Compound: N[C@@H](Cc1cccc(CSc2nnc(-c3ccncc3)[nH]2)c1)C(=O)O [drawing 528]

MS Results (IAPP binding), 20% Ethanol (IAPP): + (+ = Weak (15-30% of free peptide))
Compound: N[C@@H](Cc1cccc(CSc2nnc(-c3ccncc3)o2)c1)C(=O)O [drawing 524]
MS Results (IAPP binding), Water (IAPP): ++ (++ = Moderate (30-50% of free peptide))

MS Results (IAPP binding), Water (IAPP): 0
Compound: N[C@@H](Cc1cccc(CS(=O)(=O)c2ncc[nH]2)c1)C(=O)O [drawing 527]

MS Results (IAPP binding), Water (IAPP): + (+ = Weak (15-30% of free peptide))
Compound: N[C@@H](Cc1cccc(CSc2nnnn2-c2ccccc2)c1)C(=O)O [drawing 509]
MS Results (IAPP binding), 20% Ethanol (IAPP): ++ (++ = Moderate (30-50% of free peptide))

MS Results (IAPP binding), Water (IAPP): 0
Compound: N[C@@H](Cc1cccc(CSc2nc3ccccc3[nH]2)n1)C(=O)O [drawing 512]

MS Results (IAPP binding), Water (IAPP): 0
Compound: N[C@@H](Cc1cccc(C[S+]([O-])c2nnc(-c3ccccc3)[nH]2)c1)C(=O)O (stereo partly shown) [drawing 526]

Comparison with the Binding of Phenylalanine ([1]; 10^−4 M): 2 (10 < X < 20 Rank 2) | Comparison with the Binding of Phenylalanine ([1]; 10^−5 M): 3 (X > 20 Rank 3) | Comparison with the Binding of Phenylalanine ([1]; 10^−6 M): 1 (0 < X < 10 Rank 1)
Compound: Cn1cnnc1Sc1cccc(-c2cccc(CC(N)C(=O)O)c2)c1 (stereo not shown) [Compound 82]

Comparison with the Binding of Phenylalanine ([1]; 10^−4 M): 0 (X < 0 Rank 0) | Comparison with the Binding of Phenylalanine ([1]; 10^−5 M): 0 (X < 0 Rank 0) | Comparison with the Binding of Phenylalanine ([1]; 10^−6 M): 2 (10 < X < 20 Rank 2)
Compound: N[C@@H](Cc1ccccc1)C(=O)NC(Cc1cccc(CSc2ncc[nH]2)c1)C(=O)O (stereo partly shown) [Compound 7]

Second part, the compound before the results:

Compound: N[C@@H](Cc1cccc(CSc2ncnc3[nH]ncc23)n1)C(=O)O [drawing 492]
MS Results (Aβ 1-40 binding) (Aβ40): + (+ = Weak (25-50% of free peptide))

Compound: N[C@@H](Cc1cccc(C[S+]([O-])c2nnnn2-c2ccccc2)n1)C(=O)O (stereo partly shown) [drawing 522]
MS Results (IAPP binding), 20% Ethanol (IAPP): ++ (++ = Moderate (30-50% of free peptide)) | MS Results (IAPP binding), Water (IAPP): 0

Compound: N[C@@H](Cc1cccc(CS(=O)(=O)c2nc3ccccc3[nH]2)c1)C(=O)O [drawing 499]
MS Results (Aβ 1-40 binding) (Aβ40): ++ (++ = Moderate (50-70% of free peptide))

Compound: COc1ccc(-n2nnnc2SCc2cccc(C[C@H](N)C(=O)O)c2)cc1 [drawing 508]
MS Results (IAPP binding), 20% Ethanol (IAPP): +++ (+++ = Strong (50 and higher % of free peptide))

Compound: N[C@@H](Cc1cccc(CSc2nccc(C(F)(F)F)n2)n1)C(=O)O [drawing 519]
MS Results (IAPP binding), Water (IAPP): insoluble

Compound: N[C@@H](Cc1cccc(C[S+]([O-])c2nnnn2-c2ccccc2)n1)C(=O)O (stereo partly shown) [drawing 500]
MS Results (Aβ 1-40 binding) (Aβ40): 0

Compound: N[C@@H](Cc1cccc(CSc2nc3ccc(Cl)cc3s2)n1)C(=O)O [drawing 520]
MS Results (IAPP binding), Water (IAPP): +++ (+++ = Strong (50 and higher % of free peptide))

Compound: N[C@@H](Cc1cccc(CSc2nnnn2-c2ccc(O)cc2)c1)C(=O)O [drawing 523]
MS Results (IAPP binding), 20% Ethanol (IAPP): +++ (+++ = Strong (50 and higher % of free peptide)) | MS Results (IAPP binding), Water (IAPP): ++ (++ = Moderate (30-50% of free peptide))

Compound: N[C@@H](Cc1cccc(CSc2ncnc3[nH]ncc23)n1)C(=O)O [drawing 513]
MS Results (IAPP binding), Water (IAPP): 0

Compound: N[C@@H](Cc1cccc(CS(=O)(=O)c2nc3ccccc3[nH]2)n1)C(=O)O [drawing 514]
MS Results (IAPP binding), Water (IAPP): 0

Compound: N[C@@H](Cc1cccc(C[S+]([O-])c2nnnn2-c2ccccc2)c1)C(=O)O (stereo partly shown) [drawing 518]
MS Results (IAPP binding), 20% Ethanol (IAPP): ++ (++ = Moderate (30-50% of free peptide)) | MS Results (IAPP binding), Water (IAPP): ++ (++ = Moderate (30-50% of free peptide))

Compound: N[C@@H](Cc1cccc(CSc2nccc(O)n2)c1)C(=O)O [drawing 474]
Status of Binding ([1]; compounds of Example 4, 10^−6, 10^−5 and 10^−4, Δ versus phenylalanine): 1 (1: −10 > Δ > −50%, lower binding affinity than phenylalanine)

Compound: NC(Cc1cccc(CSc2nccc(C(F)(F)F)n2)n1)C(=O)O (stereo not shown) [Compound 21]
Comparison with the Binding of Phenylalanine ([1]; 10^−4 M): 0 (X < 0 Rank 0) | Comparison with the Binding of Phenylalanine ([1]; 10^−5 M): 2 (10 < X < 20 Rank 2) | Comparison with the Binding of Phenylalanine ([1]; 10^−6 M): 1 (0 < X < 10 Rank 1)

Compound: NC(Cc1cccc(-c2cccc(N3CCN(c4ccccn4)CC3)c2)c1)C(=O)O (stereo not shown) [Compound 113]
Comparison with the Binding of Phenylalanine ([1]; 10^−4 M): 0 (X < 0 Rank 0) | Comparison with the Binding of Phenylalanine ([1]; 10^−5 M): 0 (X < 0 Rank 0) | Comparison with the Binding of Phenylalanine ([1]; 10^−6 M): 2 (10 < X < 20 Rank 2)

Compound: NC(Cc1ccc(-c2ccc(CN3CCN(c4ccc(F)cc4)CC3)cc2)cc1)C(=O)O (stereo not shown) [Compound 120]
Comparison with the Binding of Phenylalanine ([1]; 10^−4 M): 0 (X < 0 Rank 0) | Comparison with the Binding of Phenylalanine ([1]; 10^−5 M): 1 (0 < X < 10 Rank 1) | Comparison with the Binding of Phenylalanine ([1]; 10^−6 M): 1 (0 < X < 10 Rank 1)

Compound: NC(Cc1ccc(-c2ccc(CN3CCN(c4ncccn4)CC3)cc2)cc1)C(=O)O (stereo not shown) [Compound 99]
Comparison with the Binding of Phenylalanine ([1]; 10^−4 M): 0 (X < 0 Rank 0) | Comparison with the Binding of Phenylalanine ([1]; 10^−5 M): 0 (X < 0 Rank 0) | Comparison with the Binding of Phenylalanine ([1]; 10^−6 M): 1 (0 < X < 10 Rank 1)
